The values below come from patent publication US20240083845A1 (priority 2020, published 2024).

For this assay, the target named is SARS-CoV-2 Mpro (Severe acute respiratory syndrome coronavirus 2, UniProt P0DTD1). As to the kind of experiment: SARS-CoV-2 Mpro enzyme assay (FRET). Format: biochemical. The note with it: FRET substrate Dabcyl-KTSAVLQSGFRKM-E(Edans)-Amide, 20 nM enzyme, 30 min preincubation at 30° C., mean n=2; read-out: SARS-CoV-2 Mpro enzyme assay pKi (converted).
Turning to `O=C(CCc1ccc(Cl)cc1Cl)N[C@@H](CC1CC1)C(=O)NC(C[C@@H]1CCNC1=O)C(=O)C(=O)NC1CC1` (stereo partly drawn) [Example 30, N-cyclopropyl-3-((S)-3-cyclopropyl-2-(3-(2,4-dichlorophenyl)propanamido)propanamido)-2-oxo-4-((S)-2-oxopyrrolidin-3-yl)butanamide], the Ki is 20 nM.
Turning to `O=C(/C=C/c1ccc(Cl)cc1F)N[C@@H](CC1CCC1)C(=O)NC(C[C@@H]1CCNC1=O)C(=O)C(=O)NC1CC1` (stereo partly drawn) [Example 31, 3-((S)-2-((E)-3-(4-chloro-2-fluorophenyl)acrylamido)-3-cyclobutylpropanamido)-N-cyclopropyl-2-oxo-4-((S)-2-oxopyrrolidin-3-yl)butanamide], the Ki was 25.1 nM.
Then `CC[C@@H](CC(=O)N[C@@H](CC1CC1)C(=O)NC(C[C@@H]1CCNC1=O)C(=O)C(=O)NC1CC1)c1ccccc1` (stereo partly drawn) [Example 32, (3 S)-N-((2S)-3-cyclopropyl-1-((4-(cyclopropylamino)-3,4-dioxo-1-((S)-2-oxopyrrolidin-3-yl)butan-2-yl)amino)-1-oxopropan-2-yl)-3-phenylpentanamide], with 12.6 nM.
Under `CC[C@H](CC(=O)N[C@@H](CC1CC1)C(=O)NC(C[C@@H]1CCNC1=O)C(=O)C(=O)NC1CC1)c1ccccc1` (stereo partly drawn) [Example 33, (3R)-N-((2S)-3-cyclopropyl-1-((4-(cyclopropylamino)-3,4-dioxo-1-((S)-2-oxopyrrolidin-3-yl)butan-2-yl)amino)-1-oxopropan-2-yl)-3-phenylpentanamide] stands 25.1 nM.
